Measurements: PubChem BioAssay AID1996
In brackets after ≈: the same amount, converted by molar mass.

Details: buffer; pH 7.4; 200.0 µM

| SMILES | solubility kinetic [µg/mL] |
| --- | --- |
| CCC1CCc2sc(C(=O)N3CCCN(C)CC3)cc2C1 (stereo unspecified) | 37.5 (≈ 122 µM) |
| O=C(OCC(=O)N1CCOCC1)c1ccc(Cl)cc1[N+](=O)[O-] | 48.3 (≈ 147 µM) |
| O=C(Nc1ccccc1)OCCOc1ccccc1Br | < 0.7 |
| Cc1ccc(C(=O)N2CCC(Cc3ccccc3)CC2)cc1[N+](=O)[O-] | 10.3 (≈ 30.4 µM) |
| O=C1c2ccccc2NC(c2ccccc2)N1Cc1ccccc1 (stereo unspecified) | 7.9 (≈ 25.1 µM) |
| COc1cccc(/C=C/C(=O)OCC(=O)NCCCc2ccccc2)c1OC | 5.6 (≈ 14.6 µM) |
| Cc1ccc(CNC(=O)C2CCC(=O)N(C3CC3)C2)cc1 (stereo unspecified) | > 43 |
| N=c1oc2ccccc2cc1C(=O)Nc1cccc(F)c1 | 0.3 (≈ 1.06 µM) |
| Cc1[nH]c(=O)c(C#N)c(C)c1CSc1ncccn1 | > 40.8 |
| c1ccc(-c2ccc(-c3ccncn3)cc2)cc1 | < 0.2 |
| O=C(NCC(c1ccco1)N1CCCCC1)c1ccc(S(=O)(=O)Nc2ccccc2Cl)cc1 (stereo unspecified) | 17.7 (≈ 36.3 µM) |
| O=C(O)CC(CC(=O)Nc1ccccc1C(=O)O)c1ccccc1 (stereo unspecified) | > 49.1 |
| Cc1c(C#N)c2ccccc2n1C | 19.9 (≈ 117 µM) |
| CC(NC(=O)c1cccs1)C1CCCO1 (stereo unspecified) | > 33.8 |
| COc1ccc(OC)c(S(=O)(=O)N2CCN(C)CC2c2ccccc2)c1 (stereo unspecified) | > 56.5 |
| Cc1ccc2[nH]c(C)c(CCNC(=O)c3c(N)no[n+]3[O-])c2c1 | 5 (≈ 15.9 µM) |
| CS(=O)(=O)O.c1cnc(N2CCN(Cc3ccc4c(c3)OCO4)CC2)nc1 | > 59.2 |
| NC(=O)c1ccccc1NC(=O)Nc1ccc(F)c(Cl)c1 | 2.1 (≈ 6.82 µM) |
| CCOC(=O)C1CCN(C(=O)COC(=O)CNC(=O)c2ccc(C(C)(C)C)cc2)CC1 | > 64.9 |
| Cc1nnc(SCC(=O)Nc2nccs2)o1 | > 38.4 |
| CCOC(=O)c1cn(C2CC2)c2c(F)c(NCCCN(C)C)c(F)cc2c1=O | 53.5 (≈ 136 µM) |
| O=C(NCc1ccccc1)/C(=C/c1ccco1)NC(=O)c1ccco1 | > 50.5 |
| NC(=O)Nc1ccc(C(=O)OCC(=O)N2CCCC2=O)cc1 | > 45.8 |
| Cc1cc(C)n(C)c(=O)c1C#N | > 24.3 |
| CC(=O)Nc1ccc(-c2cc(C(=O)O)c3ccccc3n2)cc1 | 42.8 (≈ 140 µM) |

| SMILES | solubility kinetic [µg/mL] |
| --- | --- |
| Nc1[nH]c2cc([N+](=O)[O-])ccc2c1-c1ccccn1 | 1.4 (≈ 5.51 µM) |
| Cc1nnc(NC(=O)C2CCN(S(=O)(=O)c3ccc(F)c(F)c3)CC2)o1 | > 58 |
| CC1CN(C(=O)COC(=O)c2ccc(O)cc2)CC(C)O1 (stereo unspecified) | 43.8 (≈ 149 µM) |
| CCCCCNC(=O)c1ccc2c(c1)ncn2-c1ccc(OC)cc1 | 26.9 (≈ 79.7 µM) |
| O=C(Nc1cccnc1)NC1CCCCC1 | > 32.9 |
| Cc1noc(-c2ccc(Cl)cc2)c1C(=O)O/N=C(\N)c1ccc(C(C)(C)C)cc1 | 0.5 (≈ 1.21 µM) |
| Cc1cc(C(=O)COC(=O)c2cccnc2Cl)c(C)n1C | 13 (≈ 42.4 µM) |
| COc1ccc(NC(=O)c2cc(-c3ccco3)nc3ccccc23)cc1 | < 0.4 |
| O=C(NCC1CCCO1)c1cnc(Cl)c(Cl)c1 (stereo unspecified) | > 41.3 |
| Cc1cccc(-c2nc(-c3ccncc3)no2)c1 | 3.4 (≈ 14.3 µM) |
| OCCNCCCOc1cc(Cl)ccc1Cl | 31.9 (≈ 121 µM) |
| CSc1ccc(/C=C/C(=O)OCC(=O)N2CCCCCC2)cc1 | 3.8 (≈ 11.4 µM) |
| Cc1ccc(SCCSc2nc(C)cc(=O)[nH]2)cc1 | 2.1 (≈ 7.18 µM) |
| CC(=O)N1CCN(CC(C)(C)NS(=O)(=O)c2ccc(C)cc2)CC1 | 46.6 (≈ 132 µM) |
| COC(=O)CSc1nc(C)cc(C)n1 | > 31.8 |
| S=C(NCC1CCCO1)NC1CC1 (stereo unspecified) | > 30 |
| Cc1ccc([N+](=O)[O-])c(OCCN2C(=O)NC(C)(C)C2=O)c1 | > 46.1 |
| CC(=O)c1ccn(S(=O)(=O)c2ccc(Cl)cc2)c1 | 33.9 (≈ 119 µM) |
| N#CCCN(Cc1cccnc1)C(=S)NC1CC2C=CC1C2 (stereo unspecified) | > 46.9 |
| CCC(Cc1ccccc1)NC(=O)C1CCCCC1 (stereo unspecified) | 11.6 (≈ 44.7 µM) |
| CCc1cccc(OC2OC(CO)C(O)C(O)C2NC(C)=O)c1 (stereo unspecified) | > 48.8 |
| CC(Oc1ccc(Cl)cc1)C(=O)N1CCCc2ccccc21 (stereo unspecified) | 2.1 (≈ 6.65 µM) |
| COc1ccc(CNC(=O)CN2C(=O)NC3(CCCCCC3)C2=O)cc1 | > 53.9 |
| CCCCOc1ccc(C(=O)Nc2ccc(CN3CCOCC3)cc2)cc1 | 1.1 (≈ 2.99 µM) |
| COc1ccc(CNCC(O)COc2ccc(C)cc2[N+](=O)[O-])cc1 (stereo unspecified) | > 52 |

| SMILES | solubility kinetic [µg/mL] |
| --- | --- |
| Cc1oc(-c2cccc(C(F)(F)F)c2)nc1CN1CCC[C@H]1CO | > 51.1 |
| CN(C(=O)c1ccc(Cl)cc1)C1CCS(=O)(=O)C1 (stereo unspecified) | 41.2 (≈ 143 µM) |
| Cc1ccc(-n2c(C(C)C)nc3oc4ccccc4c(=O)c3c2=O)cc1 | 14.7 (≈ 42.4 µM) |
| Cc1cccc2c3c([nH]c12)CCN(C)C3 | > 30 |
| FC(F)Oc1ccccc1NC(=S)Nc1cccnc1 | 43.8 (≈ 148 µM) |
| COc1ccccc1Nc1nc2cc(C)ccc2cc1C#N | < 0.2 |
| C=C(C)[C@@H]1CC=C(CN2CCC(CCOC)(C(=O)OCC)CC2)CC1 | 38.7 (≈ 111 µM) |
| O=[N+]([O-])c1ccc(SCCc2ccncc2)cc1 | 31.5 (≈ 121 µM) |
| O=C(CCCC(=O)c1ccccc1)NCc1ccccc1 | > 42.2 |
| O=C(NCCNC(=O)c1ccccc1F)c1ccco1.O=C(O)C(=O)O | 51.5 |
| COc1ccc([N+](=O)[O-])cc1NC(=O)Cc1noc2ccccc12 | 0.3 (≈ 0.917 µM) |
| CCc1noc(C)c1C(=O)Nc1ccc(F)c(F)c1 | 37.7 (≈ 142 µM) |
| C=CCSc1ncccc1C(=O)NCCc1ccc(Cl)cc1 | 3.6 (≈ 10.8 µM) |
| CN1C(=O)c2ccccc2C(O)c2ccccc21 (stereo unspecified) | 31.8 (≈ 133 µM) |
| CC(O)CCC(=O)NNC(=S)Nc1ccccc1 (stereo unspecified) | > 40.1 |
| O=S1(=O)c2cccc3cccc(c23)N1CCBr | 17.7 (≈ 56.7 µM) |
| Cc1cc(=O)[nH]c(SCc2ccc(Cl)cc2Cl)n1 | 1.2 (≈ 3.98 µM) |
| Cc1ccc(S(=O)(=O)CC(O)COc2ccc(C#N)cc2)cc1 (stereo unspecified) | > 49.7 |
| Oc1ccc(-c2nccc(-c3ccc(F)cc3)n2)cc1 | 2.1 (≈ 7.89 µM) |
| COc1ccc(Oc2nc3c(c(=O)n(C)c(=O)n3C)n2C)cc1 | > 47.4 |
| COc1ccc(CONc2ncnc3nonc23)cc1[N+](=O)[O-] | > 47.7 |
| Cc1nn(CC(=O)O)c(C)c1NC(=O)c1cccs1 | > 41.9 |
| N#CC1=C(N)NC(=S)C(C(N)=O)C1c1ccc(Cl)cc1Cl (stereo unspecified) | 11.7 (≈ 34.3 µM) |
| NS(=O)(=O)c1ccc(NC(=O)Nc2ccc(C(F)(F)F)cc2)cc1 | < 0.3 |
| Cc1ccc(C)c(NC(=O)NC2CCCCCCC2)c1 | < 0.3 |

| SMILES | solubility kinetic [µg/mL] |
| --- | --- |
| Cc1nsc2nc3c(F)c(F)c(F)c(F)c3cc12 | 4.4 (≈ 16.2 µM) |
| CC(C)(C)c1ccc(C(CC(=O)O)NC(=O)Cc2ccccc2)cc1 (stereo unspecified) | 49.3 (≈ 145 µM) |
| CSc1ccccc1Nc1ncnc(N)n1 | 25.8 (≈ 111 µM) |
| COc1ccc(-c2cc(-c3cccnc3)c(C#N)c(N)n2)cc1 | 0.6 (≈ 1.98 µM) |
| Cc1[nH]c2ccc(C(=O)NC3CCCC3)cc2c1C | > 38.5 |
| COc1cc(CO)ccc1Oc1nc2ccccc2n2cnnc12 | > 48.3 |
| Fc1ccccc1CN1CCN(c2ccc(Cl)cc2)CC1 | 1 (≈ 3.28 µM) |
| C1CN(c2nc3nonc3nc2N2CCSCC2)CCO1 | 41.1 (≈ 133 µM) |
| COc1ccc(N2C(=O)CSC2c2ccc(F)cc2)cc1 (stereo unspecified) | > 45.5 |
| CCOC(=O)NC(C)N1C(=O)C2C3C=CC(C3)C2C1=O (stereo unspecified) | > 41.7 |
| CC(C)CC(Nc1ncnc2scc(-c3ccccc3)c12)C(=O)O (stereo unspecified) | > 51.2 |
| C=CCNC(=O)c1cc(-c2cccnc2)nc2ccccc12 | > 43.4 |
| COC(=O)c1cccc2c1NC(=O)C2=O | > 30.8 |
| CC(C)CNC(=O)[C@H](Cc1ccccc1)NC(=O)c1cccs1 | 9.6 (≈ 29.1 µM) |
| Cn1c(C(=O)N[C@@H](Cc2ccccc2)C(=O)O)cc2cc(Cl)ccc21 | > 53.5 |
| O=C(NC(=S)Nc1ccc2c(c1)OCCO2)c1ccco1 | 40.3 (≈ 132 µM) |
| O=C(Nc1ccc(F)cc1)c1ccc2[nH]c(=O)c(=O)[nH]c2c1 | > 44.9 |
| O=C(Nc1ccccc1)OCCCCCOC(=O)Nc1ccccc1 | < 0.4 |
| CC(C)CNC(=O)C(=O)NCC1OCCCN1S(=O)(=O)c1cccs1 (stereo unspecified) | > 58.4 |
| N#Cc1ccc(-c2nc3cc(Cl)ccc3c(=O)n2O)cc1 | 44 (≈ 148 µM) |
| COc1ccc(CCNC(=O)c2cc(C3CC3)on2)cc1OC | > 47.5 |
| N#Cc1c(NC(=O)CCC(=O)O)sc2c1CCCCC2 | > 43.9 |
| c1ccc(N2CCN(CC3CCCCC3)CC2)cc1 | 17 (≈ 65.8 µM) |
| COc1ccc(Cl)cc1NC(=O)Nc1cnccn1 | 0.4 (≈ 1.44 µM) |
| O=C(Cc1ccc(Cl)cc1)NCC(=O)N1CCCCCC1 | > 46.3 |

| SMILES | solubility kinetic [µg/mL] |
| --- | --- |
| Cc1ccc(C)c(NC(=O)CN(C)C(=O)c2sccc2C)c1 | > 47.5 |
| CC(=O)C1=C(O)C(=O)N(c2ccc(O)cc2)C1c1ccc(F)cc1 (stereo unspecified) | > 49.1 |
| CC(=O)c1c(Nc2cccc(F)c2)oc(C)cc1=O | 31.3 (≈ 120 µM) |
| COc1ccc(NC(=O)c2cccc(NS(=O)(=O)c3ccccc3)c2)cc1 | 34.2 (≈ 89.4 µM) |
| CCN(C(=O)COC(=O)CCC(=O)c1cccs1)c1ccccc1 | > 51.8 |
| COc1ccc(C)cc1N(CC(=O)N1CCCC1)S(C)(=O)=O | > 49 |
| O=C1NCCCCC1NS(=O)(=O)c1cccc2ccccc12 (stereo unspecified) | > 47.8 |
| O=C(NCCCN1CCOCC1)C(=O)NCCc1ccccc1 | > 47.9 |
| CCN(CC)c1ccc(/C=N/O)cc1 | > 28.8 |
| CCOc1ccccc1C(=O)N(C)CC(=O)Nc1ccc(OC)cc1 | > 51.4 |
| CC(C)[C@H](NC(=O)c1ccccc1)C(=O)OCC(=O)Nc1ncc(Cl)cc1Cl | 46 (≈ 108 µM) |
| COc1ccc(CNc2ccc3c(c2)ncn3C)cc1OC | 29.7 (≈ 99.9 µM) |
| CCOC(=O)N1CCN(Cc2ccc3c(c2)OCO3)CC1 | 41.9 (≈ 143 µM) |
| CCCC/C(O)=C1\C(=O)CCCC1=NCCc1c(C)[nH]c2ccccc12 | 14.3 (≈ 40.6 µM) |
| CCCC(=O)NCc1ccccc1Cl | 30.2 (≈ 143 µM) |
| CCCOc1ccc(-c2cn3ccccc3n2)cc1 | 2.3 (≈ 9.12 µM) |
| Nc1c(C(=O)C2CC2)sc2nc3c(cc12)CCC3 | 2.2 (≈ 8.52 µM) |
| O=C(O)COCC(=O)Nc1ccc(OCCc2ccccc2)cc1 | 45.4 (≈ 138 µM) |
| N/C(=N\OC(=O)/C=C/c1ccccc1Cl)c1ccncc1 | 28.2 (≈ 93.5 µM) |
| CS(=O)(=O)N1CCN=C1SCc1ccccc1 | > 40.6 |
| COc1ccccc1C(=O)NCCC(=O)NCC1CCCO1 (stereo unspecified) | > 46 |
